Results reported in patent US10703698B2, “Compounds which activate estrogen receptors and compositions and methods of using the same” (The Board of Trustees of the University of Illinois, priority 2016, dated 2020).

What was measured:
[1] = test system: LRRC54 gene; assay: LRRC54 (non-genomic gene) mRNA expression, qPCR; conditions: for LRRC54 (non-genomic gene) mRNA expression, in words: MCF-7 cells, 1 μM PaPE or 10 nM E2 for 4 h where stated, versus vehicle, E2 or compound 2
Excerpt: (§2) Quantitation of signal intensities is shown in panel at the right.

[2] = target: T1, purified full-length human ERβ (Homo sapiens, UniProt Q92731); assay: competitive radiometric binding assay, relative binding affinity (RBA); conditions: relative to estradiol = 100
T1 construct: using purified full-length human ERα and ERβ
Excerpt: (§1) FIG. 1. […] […]

[3] = target: T2, purified full-length human ERα (Homo sapiens, UniProt P03372); assay: as above; conditions: relative to estradiol = 100
T2 construct: using purified full-length human ERα and ERβ
T2 sequence (P03372 1-595): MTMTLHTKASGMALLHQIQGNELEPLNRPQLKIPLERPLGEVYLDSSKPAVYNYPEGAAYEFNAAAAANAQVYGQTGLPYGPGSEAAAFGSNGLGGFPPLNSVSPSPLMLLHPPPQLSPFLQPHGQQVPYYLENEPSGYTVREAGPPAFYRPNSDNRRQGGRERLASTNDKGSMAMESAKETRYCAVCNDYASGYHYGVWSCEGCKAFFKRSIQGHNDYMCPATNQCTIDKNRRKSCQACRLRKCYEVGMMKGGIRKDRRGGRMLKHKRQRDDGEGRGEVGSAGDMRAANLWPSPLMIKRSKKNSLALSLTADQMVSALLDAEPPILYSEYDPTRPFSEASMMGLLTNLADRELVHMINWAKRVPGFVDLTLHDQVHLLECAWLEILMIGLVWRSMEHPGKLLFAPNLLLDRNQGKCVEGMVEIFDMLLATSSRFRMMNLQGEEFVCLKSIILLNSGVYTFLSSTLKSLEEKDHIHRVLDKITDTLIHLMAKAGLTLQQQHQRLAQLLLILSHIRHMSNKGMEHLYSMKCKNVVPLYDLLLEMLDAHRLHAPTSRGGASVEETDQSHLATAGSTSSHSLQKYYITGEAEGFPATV
Excerpt: as §1

[4] = test system: PgR gene; assay: PgR (genomic gene) mRNA expression, qPCR; conditions: MCF-7 cells; 1 μM PaPE or 10 nM E2 for 4 h where stated; versus vehicle or E2
Excerpt: as §2

T1 sequence (Q92731 whole entry): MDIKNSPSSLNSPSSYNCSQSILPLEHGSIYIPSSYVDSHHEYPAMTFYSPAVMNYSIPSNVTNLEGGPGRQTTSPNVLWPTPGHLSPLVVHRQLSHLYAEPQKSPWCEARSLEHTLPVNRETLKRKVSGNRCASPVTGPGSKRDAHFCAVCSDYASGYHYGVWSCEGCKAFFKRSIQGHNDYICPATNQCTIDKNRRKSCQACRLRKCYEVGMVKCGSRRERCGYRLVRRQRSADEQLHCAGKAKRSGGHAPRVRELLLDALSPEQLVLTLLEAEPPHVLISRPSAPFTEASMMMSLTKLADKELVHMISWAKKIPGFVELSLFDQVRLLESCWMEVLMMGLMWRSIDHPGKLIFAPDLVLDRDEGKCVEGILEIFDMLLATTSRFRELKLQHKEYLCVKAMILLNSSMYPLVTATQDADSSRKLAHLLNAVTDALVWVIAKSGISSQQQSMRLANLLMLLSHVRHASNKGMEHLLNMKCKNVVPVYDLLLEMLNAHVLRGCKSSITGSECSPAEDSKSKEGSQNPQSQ

Row | Structure (SMILES) | LRRC54 (non-genomic gene) mRNA expression, in words [1] | PgR (genomic gene) mRNA expression, in words [4] | other results
1 | Cc1cc(-c2ccc3c(c2)CC[C@@H]3O)cc(C)c1O [Compound 3, S-5-(4-hydroxy-3,5-dimethylphenyl)-2,3-dihydro-1H-inden-1-ol] | equivalent activities |  | 
2 | Cc1cc(-c2ccc3c(c2)CC[C@H]3O)cc(C)c1O [Compound 4, R-5-(4-hydroxy-3,5-dimethylphenyl)-2,3-dihydro-1H-inden-1-ol] | less non-genomic gene activity |  | 
3 | COc1c(C)cc(-c2ccc3c(c2)CCC3O)cc1C (centres unmarked) [Compound 5, 5-(4-methoxy-3,5-dimethylphenyl)-2,3-dihydro-1H-inden-1-ol] | marked loss of this non-genomic activity |  | 
4 | Cc1cc(-c2ccc3c(c2)CCC3=O)cc(C)c1O [Compound 6, 5-(4-hydroxy-3,5-dimethylphenyl)-2,3-dihydro-1H-inden-1-one] | non-genomic activity is lost |  | 
5 | Cc1cc(-c2ccc3c(c2)CCC3Cl)cc(C)c1O (centres unmarked) [Compound 8, 4-(1-chloro-2,3-dihydro-1H-inden-5-yl)-2,6-dimethylphenol] | stimulation of the nongenomic gene (LRRC54), but to a lesser degree than compound 2 |  | LRRC54 stimulation compared to E2 ([1]; FIG. 14): 50%; ERβ RBA (relative binding affinity) [2]: 0.006 ± 0.001; ERα RBA (relative binding affinity) [3]: 0.001 ± 0
6 | Cc1cc(-c2ccc3c(c2)CCC3C#N)cc(C)c1O (centres unmarked) [Compound 9, 5-(4-hydroxy-3,5-dimethylphenyl)-2,3-dihydro-1H-indene-1-carbonitrile] | no non-genomic activity |  | ERβ RBA (relative binding affinity) [2]: 0.002 ± 0.001; ERα RBA (relative binding affinity) [3]: 0.003 ± 0.001
7 | Cc1cc(-c2ccc3c(c2)CCC3)cc(C)c1O [Compound 13, 4-(2,3-dihydro-1H-inden-5-yl)-2 6-dimethylphenol] | some non-genomic activity | strongly stimulate the genomic gene PgR | 
8 | Cc1cc(-c2ccc3c(c2)CC=C3)cc(C)c1O [Compound 14, 4-(1H-inden-6-yl)-2,6-dimethylphenol] |  | strongly stimulate the genomic gene PgR | 
9 | Cc1cc(-c2ccc3c(c2)C=CC3=O)cc(C)c1O [Compound 18] | increases expression of both the non-genomic and genomic genes | increases expression of both the non-genomic and genomic genes | 
10 | C#CC1(O)CCc2cc(-c3cc(C)c(O)c(C)c3)ccc21 (centres unmarked) [Compound 19, 1-ethynyl-5-(4-hydroxy-3,5-dimethylphenyl)-2,3-dihydro-1H-inden-1-ol] |  |  | ERβ RBA (relative binding affinity) [2]: <0.001; ERα RBA (relative binding affinity) [3]: 0.004 ± 0.001
11 | COC1CCc2cc(-c3cc(C)c(O)c(C)c3)ccc21 (centres unmarked) [Compound 22, 4-(1-methoxy-2,3-dihydro-1H-inden-5-yl)-2,6-dimethylphenol] | stimulation of both genomic and nongenomic gene expression is lost | stimulation of both genomic and nongenomic gene expression is lost | 
12 | Cc1cc(-c2ccc(CO)cc2)cc(C)c1O [Compound 23] |  |  | ERβ RBA (relative binding affinity) [2]: 0.002 ± 0.001; ERα RBA (relative binding affinity) [3]: 0.002 ± 0.001
13 | Cc1cc(-c2ccc(CO)c(F)c2)cc(C)c1O [Compound 25, 3′-fluoro-4′-(hydroxvmethyl)-3,5-dimethyl-[1,1′-biphenyl]-4-ol] |  |  | ERβ RBA (relative binding affinity) [2]: 0.009 ± 0; ERα RBA (relative binding affinity) [3]: 0.003 ± 0
14 | Cc1cc(-c2ccc(CO)cc2C(F)(F)F)cc(C)c1O [Compound 28] |  |  | ERβ RBA (relative binding affinity) [2]: 0.013 ± 0.002; ERα RBA (relative binding affinity) [3]: 0.008 ± 0.002
15 | COC1CC(=O)c2ccc(-c3cc(C)c(O)c(C)c3)cc21 (centres unmarked) [Compound 29] |  | did not activate PgR above that of vehicle (veh.) | 
16 | CC(O)c1ccc(-c2ccccc2)cc1 (centres unmarked) [Compound 31] | both activities are lost | both activities are lost | 
17 | Cc1cc(-c2ccc(O)cc2)cc(C)c1O [Compound 35] | principally loss of LRRC54 gene expression |  | ERβ RBA (relative binding affinity) [2]: 0.755 ± 0.20; ERα RBA (relative binding affinity) [3]: 0.011 ± 0.003

Row | Structure (SMILES) | LRRC54 (non-genomic gene) mRNA expression, in words [1] | PgR (genomic gene) mRNA expression, in words [4] | other results
18 | Cc1cc([C@H]2CC[C@@]3(C)[C@H](CC[C@@H]3O)C2)cc(C)c1O [Compound 43, (1S,3aR,5S,7aS)-5-(4-hydroxy-3,5-dimethylphenyl)-7a-methyloctahydro-1H-inden-1-ol] |  |  | ERβ RBA (relative binding affinity) [2]: 0.001; ERα RBA (relative binding affinity) [3]: <0.001
19 | Cc1cc(-c2ccc(CCBr)cc2)cc(C)c1O [Compound 46] | preferentially stimulate LRRC54 better than E2 |  | 
20 | Cc1cc(-c2cccc(CCCO)c2)cc(C)c1O [Compound 47, 3′-(3-hydroxypropyl)-3,5-dimethyl-[1,1′-biphenyl]-4-ol] | good stimulation of the non-genomic LRRC54 | stimulate expression of genomic PgR genes well | 
21 | Cc1cc(-c2ccc(CCCO)cc2)cc(C)c1O [Compound 48, 4′-(3-hydroxypropyl)-3,5-dimethyl-[1,1′-biphenyl]-4-ol] |  | stimulate expression of genomic PgR genes well | 
22 | Cc1cc(-c2cccc(CC(=O)O)c2)cc(C)c1O [Compound 49] | behaves like vehicle | behaves like vehicle | 
23 | Cc1cc(-c2ccc3c(c2)CC(F)C3O)cc(C)c1O (centres unmarked) [Compound 50, 2-fluoro-5-(4-hydroxy-3,5-dimethylphenyl)-2,3-dihydro-1H-inden-1-ol] | stimulate both non-genomic LRRC54 and genomic PgR gene expression close to the level that of E2 | stimulate both non-genomic LRRC54 and genomic PgR gene expression close to the level that of E2 | 
24 | Cc1cc(-c2ccc3c(c2)CC(Br)C3O)cc(C)c1O (centres unmarked) [Compound 51, 2-bromo-5-(4-hydroxy-3,5-dimethylphenyl)-2,3-dihydro-1H-inden-1-ol] | stimulate both non-genomic LRRC54 and genomic PgR gene expression close to the level that of E2 | stimulate both non-genomic LRRC54 and genomic PgR gene expression close to the level that of E2 | 
25 | Cc1cc(-c2ccc3c(c2)CC(Br)(Br)C3O)cc(C)c1O (centres unmarked) [Compound 52, 2,2-dibromo-5-(4-hydroxy-3,5-dimethylphenyl)-2,3-dihydro-1H-inden-1-ol] | little expression of both genes | little expression of both genes | 
26 | Cc1cc(-c2ccc3cc(O)ccc3c2)cc(C)c1O [Compound 53] | gene expression pattern equivalent to that of estradiol (E2) | gene expression pattern equivalent to that of estradiol (E2) | 
27 | COCc1cc(-c2ccc3c(c2)CCC3O)cc(C)c1O (centres unmarked) [Compound 54, 5-(4-hydroxy-3-methyl-5-methoxymethylphenyl)-2,3-dihydro-1H-inden-1-ol] | little expression of both genes | little expression of both genes | 
28 | OCc1cc(-c2ccc3c(c2)CCC3O)cc(CO)c1O (centres unmarked) [Compound 58, 5-(4-hydroxy-3,5-(dihydroxymethyl)phenyl)-2,3-dihydro-1H-inden-1-ol] | increases the expression of the non-genomic LRRC54 gene |  | 
29 | OCc1cc(-c2ccccc2)ccc1O [Compound 61, 4-Hydroxy-3-hydroxymethyl-biphenyl] | a little better than vehicle (Veh.) | not at all | 
30 | Cc1cc(-c2cc(C)c(O)c(C)c2)cc(C)c1O [Compound 65, 4,4′-Dihydroxy-3,3′,5,5′-tetramethylbiphenyl] | greatly suppresses LRRC54 gene expression | equivalent to that of vehicle (Veh.) | 
31 | Cc1cc(C(=C2C3CC4CC(C3)CC2C4)c2ccc(Br)cc2)cc(C)c1O [Compound 66] |  | stimulate PgR gene selectively | 
32 | Cc1cc(C(=C2CCCCC2)c2ccc(Br)cc2)cc(C)c1O [Compound 67] |  | stimulate PgR gene selectively | 
33 | Cc1cc(-c2cc(C)c(O)c(CO)c2)cc(C)c1O [Compound 68, 3-(Hydroxymethyl)-3′,5,5′-trimethyl-[1,1′-biphenyl]-4,4′-diol] | suppresses LRRC54 gene expression compared to that of the parent compound 59 |  | 
34 | Cc1cc(-c2ccc(O)c(CCO)c2)cc(C)c1O [Compound 69, 3′-(2-hydroxyethyl)-3,5-dimethyl-[1,1′-biphenyl]-4,4′-diol] | does not improve the non-genomic LRRC54 gene response |  | 
